Measured values as given in patent publication US20170368207A1, “SELF-ASSEMBLED NANOSTRUCTURE AND METHOD FOR PREPARING THE SAME” (National Chiao Tung University, priority 2016, published 2017).

Experiment: Relaxivity of contrast agents (Table 4)
Assay type: physicochemical
Source text: Relaxivities of a self-assembled nanostructure of the invention, gadodiamide, and carboxymethyl hexanoyl chitosan that physically encapsulates gadodiamide are as shown in Table 4. Hereinafter, the symbol “CHC+Gd” represents that there is only physical mixing between gadodiamide and carboxymethyl hexanoyl chitosan, while the symbol “CHC−Gd” represents that chemical bonding exists between gadodiamide and carboxymethyl hexanoyl chitosan (i.e., the self-assembled nanostructure of the invention).
As a molecule grafted to a paramagnetic metal of a contrast agent is larger, a rotation time between the paramagnetic metal and a solvent molecule becomes longer, so that the relaxivity of the contrast agent is enhanced. The higher the relaxivity of the contrast agent, the better the contrast effect, i.e., the more excellent the contrasting ability. In the self-assembled nanostructure of the invention, gadolinium (paramagnetic metal) has an amphiphilic chitosan (polymer) grafted thereto, and thus has a higher relaxivity than the relaxivities of the single gadodiamide and CHC+Gd. […] In other words, the contrast agent compound of the invention, after being grafted to the amphiphilic chitosan, produces a synergistic effect on the contrasting ability of the contrast agent compound.

- Relaxivity: 1.8158 mM⁻¹ s⁻¹
SMILES: CNC(=O)CN(CCN(CCN(CC(=O)[O-])CC(=O)NC)CC(=O)[O-])CC(=O)[O-].[Gd+3] [Gadodiamide, gadodiamide]
